The text below walks through data of publication PMC9197875 (Clinical cancer research : an official journal of the …, 2022).

Read-outs that look alike come from different tables or passages of the source.

A short description of data set [1]: Plasma pharmacokinetics in mice, alone versus combination. In kind it is in vivo. Conditions: administered acutely or chronically.
A short description of data set [2]: Crenolanib and sorafenib pharmacokinetic studies in patients. To be noted: for AUC(0-t) / Cmax: human, serum, oral; for AUC(0-t): 150 mg/m2, Crenolanib AUC(0–8h). In kind it is in vivo, human.
The subject of data set [3] is phospho-FLT3. Conditions: leukemia samples, plasma inhibitory assay; cited from earlier work.
Data set [4] has as its system MOLM13 cells. To be noted: gilteritinib alone, same preclinical model; cited from earlier work.
For data set [5] the following is noted: NSG mice, cited from earlier work.
The subject of data set [6] is FLT3 ligand. To be noted: baseline to day 7, single agent crenolanib.
A short description of data set [7]: Toxicity evaluation. To be noted: 200 mg/m^2 in 3 divided doses; no dose reduction required. Type of data set: in vivo, human.
The conditions of data set [8]: adults, cited from earlier work.
For data set [9], the system named is FLT3-ITD-positive AML. In kind it is in vivo, human. Conditions: for % AML cells in marrow by flow cytometry, Day 8: after single agent crenolanib.
Where [10] appears, read: after 1 week of combination with sorafenib, not significant.
[11] abbreviates: day 1, sorafenib 150 mg/m^2 qd cohort, N=3, median (range).
The mark [12] stands for this setting: day 7, sorafenib 150 mg/m^2 qd cohort, N=3, median (range).
[13] abbreviates: day 14, with sorafenib 150 mg/m^2 qd, N=3, median (range).
Setting [14] is: day 14, with sorafenib 200 mg/m^2 qd, N=6, median (range).

Consider `CNC(=O)c1cc(Oc2ccc(NC(=O)Nc3ccc(Cl)c(C(F)(F)F)c3)cc2)ccn1` [sorafenib], for which the “Plasma exposure alone versus in combination” value in [1] is “similar”. Besides, in [2] (day 14, sorafenib 150 mg/m^2 qd with crenolanib 200 mg/m^2 tid, N=3, median (range)), the “Sorafenib Cmax” value was 4.2 (2.4–5.0) mg/L. In addition, the “Sorafenib Cmin” value is recorded as 3.1 (1.3–4.1) mg/L in data set [2] (day 14, sorafenib 150 mg/m^2 qd with crenolanib, N=3, median (range)) and 1.1 (0.8–2.2) mg/L in data set [2] (day 14, sorafenib 200 mg/m^2 qd with crenolanib, N=6, median (range)). Besides, in data set [3], the “Concentration that inhibited phospho-FLT3” value is 143 ng/mL.

Consider `CCc1nc(C(N)=O)c(Nc2ccc(N3CCC(N4CCN(C)CC4)CC3)c(OC)c2)nc1NC1CCOCC1` [gilteritinib], for which the Median survival in data set [4] is recorded as 31 days.

For the compound `CC1(COc2ccc3c(c2)ncn3-c2ccc3cccc(N4CCC(N)CC4)c3n2)COC1` [crenolanib], the Maximum tolerated single-dose in data set [5] is listed as 15 mg/kg. Further, the Maximum tolerated schedule in [5] (twice daily for 5 days per week) was 15 mg/kg. In addition, the “Change in FLT3 ligand concentrations” value in [6] is recorded as “Minimal changes”. Further, the “Plasma exposure alone versus in combination” value in data set [1] was “similar”. Also, in data set [7], the Tolerability result is listed as “well-tolerated”. For the same compound, the “Decrease in median Cl/f, day 14 versus day 1” value in data set [2] (setting [10]) is reported as 55%. Moreover, the “Decrease in median Cl/f, day 14 versus day 7” value in data set [2] (setting [10]) is on record as 50%. For the same compound, the “Crenolanib Cl/f” value is given as 45.0 L/h/m^2 in data set [2] (day 1, All Dose Levels, median (range)); 45.0 (5.4–1112.0) L/h/m^2 in data set [2] (day 1, All Dose Levels, median (range), listed as Crenolanib); 51.7 (45.0–184.7) L/h/m^2 in data set [2] (setting [11]); 42.9 (5.4–1112.0) L/h/m^2 in [2] (day 1, sorafenib 200 mg/m^2 qd cohort, N=6, median (range)); 40.5 L/h/m^2 in data set [2] (day 7, All Dose Levels, median (range)); 40.5 (2.4–153.9) L/h/m^2 in data set [2] (day 7, All Dose Levels, median (range), listed as Crenolanib). Moreover, the “Crenolanib Cl/f” value in data set [2] (setting [12]) is listed as 63.3 (40.5–153.9) L/h/m^2; in [2] (day 7, sorafenib 200 mg/m^2 qd cohort, N=6, median (range)), 22.9 (2.4–120.4) L/h/m^2; in [2] (day 14, All Dose Levels, with sorafenib, median (range)), 20.3 L/h/m^2; in data set [2] (day 14, All Dose Levels, with sorafenib, median (range), listed as Crenolanib), 20.3 (2.6–162.3) L/h/m^2; in data set [2] (setting [13]) it was 62.4 (20.3–162.3) L/h/m^2; in data set [2] (setting [14]), 16.6 (2.6–111.4) L/h/m^2. The figures for the “Crenolanib Cmin” value in [2] (setting [13]) and in data set [2] (setting [14]) were 64.5 (17.5–158.5) ng/mL and 229.9 (27.5–1179.0) ng/mL, respectively. Moreover, the AUC(0-t) in data set [2] (setting [11]) stood at 710 ng·h/mL; in data set [2] (setting [12]) it was 1000 ng·h/mL; in [2] (setting [13]), 1090 ng·h/mL. For the same compound, the Cmax is 190 ng/mL in data set [2] (150 mg/m2, Crenolanib Cmax, day 7, sorafenib 150 mg/m^2 qd cohort, N=3, median (range)); 233 ng/mL in [2] (150 mg/m2, Crenolanib Cmax, day 14, with sorafenib 150 mg/m^2 qd, N=3, median (range)); 135 ng/mL in data set [2] (200 mg/m^2, Crenolanib Cmax, day 1, crenolanib 200 mg/m^2 tid, sorafenib 150 mg/m^2 qd cohort, N=3, median (range)). Besides, the “Decrease in median Cl/f, day 7 versus day 1” value in [2] (single agent crenolanib, not significant) was 10%. Besides, the Cl/f is reported as 33 L/h/m^2 in [8] (day 1) and 34 L/h/m^2 in [8] (day 15). For the same compound, the “% AML cells in marrow by flow cytometry, Day 8” value in data set [9] (Patient 1, pre-treatment 26) is on record as 8.5%; in data set [9] (Patient 2, pre-treatment 72), 15.6%; in data set [9] (Patient 3, pre-treatment 56), 48.41%; in data set [9] (Patient 4, pre-treatment 71) it was 58.37%; in data set [9] (Patient 5, pre-treatment 24), 58.63%; in [9] (Patient 6, pre-treatment 98), 42.38%. Also, the “% AML cells in marrow by flow cytometry, Day 8” value in data set [9] (Patient 7, pre-treatment 92) was found to be 73.05%; in [9] (Patient 8, pre-treatment 0, no marrow involvement) it was 0%; in data set [9] (Patient 9, pre-treatment 92), 22%. The “Patients with decrease in bone marrow blast percentages” value in [9] (after 7 days of crenolanib treatment, evaluable patients) is 7 of 8. Also, the “Patients with decreases (1% or less) in peripheral blast percentages” value in data set [9] (day 8, among 7 patients with peripheral blasts) is 5.
